# Experimental data published in the OligoGym collection.
# After the bases stand the sugars from the 5' end (letter, count) and the backbone: PS all phosphorothioate, else s phosphorothioate and o phosphodiester by linkage. Methylation of C is not given here. l = locked nucleic acid (LNA); d = 2'-deoxy (DNA)
# Target: SNHG14
# Conditions: ASO
# [1] = Mouse Primary Neuronal Cell, 0.005 µM
Sequence,"target mRNA inhibition (Human Neuronal Cell, 7.5 µM)","target mRNA inhibition (Human Neuronal Cell, 0.2 µM)","target mRNA inhibition (Human Neuronal Cell, 1 µM)",other results
"ATTTTTTTCTTACTATCTTC (sugars ldlddldddddddddddlll, PS)",56%,,,
"CCTTTAGCATTTCTATT (sugars l2 d11 l4, PS)",,38%,59%,
"ATCTGATCTCACACAT (sugars l3 d10 l3, PS)",,22%,40%,
"TTTATACCTTTCTTTAACCC (sugars lddldddddddddlddddll, PS)",53%,,,
"TTATAGCCATTCTATCT (sugars ldddlddddddllddll, PS)",16%,,,
"CATTATTAACCACCTT (sugars l2 d10 l4, PS)",,54%,59%,
"ATCCTGATAATTAACT (sugars l4 d10 l2, PS)",,-8%,5%,
"CCTATGTTAATACTTTC (sugars l4 d11 l2, PS)",,35%,47%,
"TTATAGCCATTCTATCT (sugars lddllddddddddldll, PS)",62%,,,
"CAGCCATAAACTATAT (sugars l4 d10 l2, PS)",,15%,7%,
"TAAAATTATTTATACACCAT (sugars lllldllddddddlllldll, PS)",-13%,,,
"GCACATTCTTTCTATACCT (sugars l1 d3 l1 d12 l2, PS)",48%,,,
"TTTATCAATATCTTCTCACT (sugars ldldddddddddddldddll, PS)",39%,,,
"AGATCATTCTCAACAATT (sugars l1 d3 l2 d6 l6, PS)",54%,,,
"TCTCAAAGATCATTCT (sugars l4 d10 l2, PS)",,54%,62%,
"ATTTTTTTCTTACTATCTTC (sugars ldddddlddddddldddlll, PS)",43%,,,
"ATGCTCACACTAATTA (sugars l4 d10 l2, PS)",,35%,48%,
"TTCCATTTATTTCCATTTAT (sugars ldddlddddddddddlldll, PS)",55%,,,
"AACCCATTTCTAACAT (sugars l4 d10 l2, PS)",,35%,56%,
"ATAACATTACTCTTAACA (sugars l3 d12 l3, PS)",,22%,40%,
"TTTACACTTAATTATACT (sugars l2 d12 l4, PS)",,7%,6%,
"CTTCCCTTTGATAACAT (sugars l3 d11 l3, PS)",,20%,43%,
"TACTCTGCAATACACCA (sugars l1 d1 l1 d12 l2, PS)",55%,,,

Sequence,"target mRNA inhibition (Human Neuronal Cell, 7.5 µM)","target mRNA inhibition (Human Neuronal Cell, 0.2 µM)","target mRNA inhibition (Human Neuronal Cell, 1 µM)",other results
"TACACTTAATTATACTTCCA (sugars lldldlddddddddddddll, PS)",60%,,,
"ATATTGATTCAATTCCC (sugars llldldddddddlddll, PS)",52%,,,
"CCAGACTCCAATATTT (sugars l4 d10 l2, PS)",,55%,39%,
"AAATCTCAACTACCATTTTT (sugars ldddlddddddddldlllll, PS)",46%,,,
"TTTCCATTTATTTCCATTT (sugars lldlddddddddddlldll, PS)",53%,,,
"CTTTAATGCTTCTAACT (sugars l4 d11 l2, PS)",,28%,55%,
"AATTATTTATACACCATCAT (sugars lddllldddddddldlddll, PS)",71%,,,
"GCACATTCTTTCTATAC (sugars ldlldddddddlddlll, PS)",51%,,,
"GATCATTCTCAACAATTAA (sugars lllllddddddddldldll, PS)",5%,,,
"CCTACATCTCATACTTGC (sugars l2 d14 l2, PS)",,4%,21%,"target mRNA inhibition (Human Neuronal Cell, 5 µM): 25%; target mRNA inhibition [1]: 92.2%"
"TTCTACTAAACATACAC (sugars l3 d11 l3, PS)",,40%,49%,
"AGCAACATTATTAACCAC (sugars ldllldddddddllldll, PS)",35%,,,
"TTTTAACCAGAGTGGCATCC (sugars l2 d16 l2, PS)",59%,,,
"ATTTACACTTAATTATACTT (sugars lldlddlddddddllldlll, PS)",10%,,,
"CAACATTATTGACACT (sugars l2 d10 l4, PS)",,45%,61%,
"TTTCCATTTATTTCCATTT (sugars l4 d13 l2, PS)",,47%,56%,
"AATTTTTTTCTTACTATCTT (sugars ldddldlddddddlldddll, PS)",34%,,,
"TGTTTATACCCTTTCCAA (sugars lldldlddddddldddll, PS)",54%,,,
"TTATAGCCATTCTATCT (sugars ldddldddddddlddll, PS)",31%,,,
"TTGATTCAATTCCCTTA (sugars l1 d2 l1 d9 l4, PS)",69%,,,
"TTCTGTTTCCATTTACA (sugars l4 d11 l2, PS)",,43%,39%,
"ATTTTTTTCTTACTATCTTC (sugars llddldldddddddldddll, PS)",49%,,,
"ATTGATTCAATTCCCTT (sugars llddldddddddldlll, PS)",50%,,,

Sequence,"target mRNA inhibition (Human Neuronal Cell, 7.5 µM)","target mRNA inhibition (Human Neuronal Cell, 0.2 µM)","target mRNA inhibition (Human Neuronal Cell, 1 µM)",other results
"TACTCTGCAATACACC (sugars l2 d2 l1 d9 l2, PS)",61%,,,
"TCTGTATACACCATCCC (sugars l1 d11 l1 d2 l2, PS)",54%,,,
"CATCTGCTACATATTCT (sugars l4 d11 l2, PS)",,53%,62%,
"ACTCTCACTGTAACTTT (sugars l4 d11 l2, PS)",,21%,35%,
"TTCTGTATACACCATCC (sugars l1 d3 l1 d10 l2, PS)",50%,,,
"TACTCTGCAATACACC (sugars l2 d12 l2, PS)",59%,,,
"TTTATCAATATCTTCTCAC (sugars lllddldddddddllddll, PS)",54%,,,
"ATCCTATGTTAATACT (sugars l4 d10 l2, PS)",,14%,33%,
"TTTATCAATATCTTCTCA (sugars l3 d2 l1 d9 l3, PS)",65%,,,
"TTTATCAATATCTTCTCA (sugars l4 d10 l1 d1 l2, PS)",69%,,,
"TTTTTTCTTACTATCTTCAA (sugars lldldddddddddddldlll, PS)",51%,,,
"GCACATTCTTTCTATAC (sugars l2 d2 l1 d9 l3, PS)",62%,,,
"TCTCCAACATAGATCCT (sugars l4 d11 l2, PS)",,33%,46%,
"TAAAATTATTTATACACCAT (sugars ldddlllddddddllldlll, PS)",34%,,,
"TACACAATCAACAACAAAT (sugars l4 d13 l2, PS)",,25%,41%,
"CACAATCAACAACAAATA (sugars l4 d12 l2, PS)",,40%,54%,
"TTTACTGTCAACTCCT (sugars l2 d10 l4, PS)",,51%,57%,
"CTACTAAACATACACAT (sugars l3 d11 l3, PS)",,34%,45%,
"AATCTCAACTACCATT (sugars l4 d10 l2, PS)",,60%,66%,
"TCATATTGAACCAATT (sugars l4 d10 l2, PS)",,59%,71%,
"CAGCAGGCAGATAACCTC (sugars l3 d12 l3, PS)",,-4%,18%,"target mRNA inhibition (Human Neuronal Cell, 5 µM): 21%"
"TTTATCAATATCTTCTCAC (sugars ldlddlddddddldddlll, PS)",61%,,,
"TGTTTCCATCTACTATTA (sugars lddddlddddddddldll, PS)",62%,,,

Sequence,"target mRNA inhibition (Human Neuronal Cell, 7.5 µM)","target mRNA inhibition (Human Neuronal Cell, 0.2 µM)","target mRNA inhibition (Human Neuronal Cell, 1 µM)",other results
"TTATAGCCATTCTATCT (sugars l1 d1 l2 d11 l2, PS)",66%,,,
"AGCAACATTATTAACCAC (sugars l2 d10 l2 d1 l3, PS)",44%,,,
"ACTGTTTATACCCTTTCC (sugars l1 d15 l2, PS)",40%,,,
"TTTTATACCTTTCTTTAACC (sugars l1 d14 l1 d2 l2, PS)",21%,,,
"TTCTGTATACACCATCC (sugars lddldddddddddldll, PS)",57%,,,
"CATTTCATATTACTAACT (sugars l3 d12 l3, PS)",,10%,18%,
"GTTTATACCCTTTCCAAT (sugars ldldldddddddddldll, PS)",57%,,,
"TAAAGATCCCATCACTC (sugars l3 d11 l3, PS)",,44%,50%,
"CTACATCTCATACTTGC (sugars l2 d12 l3, PS)",,,,target mRNA inhibition [1]: 97%
"TTTATACCTTTCTTTAACCC (sugars l1 d14 l2 d1 l2, PS)",63%,,,
"TGAAAATCTCAACTACCAT (sugars l1 d11 l1 d2 l4, PS)",24%,,,
"TTCTGTATACACCATCC (sugars l1 d12 l4, PS)",51%,,,
"GTATTTACTCTTTACCT (sugars l3 d11 l3, PS)",,41%,35%,
"TTATACCTTTCTTTAACCCT (sugars l1 d5 l1 d11 l2, PS)",59%,,,
"CAACATTATTAACCACCTTA (sugars llddlddddddddddldlll, PS)",47%,,,
"TCTTTGACATTCCATCTC (sugars l4 d12 l2, PS)",,49%,56%,
"CAGCATTCAACCCTAAT (sugars l3 d12 l2, PS)",,40%,54%,
"TAAAATTATTTATACACCAT (sugars llldldldddddddlldlll, PS)",21%,,,
"ATATTGATTCAATTCCC (sugars l1 d1 l2 d8 l5, PS)",64%,,,
"AATTATTTATACACCATCAT (sugars ldddldlddddddldddlll, PS)",67%,,,
